# Laboratory results published in PMC4741889, “Ligand-based chemoinformatic discovery of a novel small molecule inhibitor targeting CDC25 dual specificity phosphatases and displaying in vitro efficacy against melanoma cells” (Oncotarget, 2015).
# Experiments:
# [1] = system: PC-3 prostate cancer cell line; set-up: method as in PMID 22524450; settings: cited from earlier work
# A2058 cells = experiment: MTT cell growth rate, A2058 melanoma cells; assay type: cell-based, human; settings: A2058, 100 μM, 48 h, MTT
# Procedure: (§1) The human melanoma cell line A2058, kindly provided by CEINGE (Naples, Italy), and SAN cells were derived from lymph nodal metastases and grown in DMEM and RPMI 1640, respectively, supplemented with 10% FBS, 2 mM L-glutamine, 100 IU/mL penicillin G, and 100 μg/mL streptomycin in humidified incubator at 37°C under 5% CO2 atmosphere. All cells were split and seeded every three days and used during the exponential phase of growth. Cell treatments were always carried after 24 h from plating.
# (§2) The MTT assay was used to detect cell proliferation essentially as previously described. Briefly, A2058 and SAN cells were plated in 96-well microtiter plates (100 μL/well) at 4000 and 6000 cells/well, respectively. After 24-h seeding, cells were treated with the selected compounds added at 25, 50 or 100 μM concentration, or with 0.5% (v/v) DMSO as a vehicle control. After 24-h, 48-h or 72-h treatment, and upon the addition of 10 μL of MTT solution in the dark, the plate was incubated for 3 h at 37°C under CO2 atmosphere. After medium aspiration and solubilization of formazan crystals, absorbance was measured at 570 nm, using an ELISA plate reader (Bio-Rad, Milano, Italy).
# CDC25C = target: T1, CDC25C (Homo sapiens, UniProt P30307); experiment: Ki from OMFP hydrolysis kinetics (Lineweaver-Burk), CDC25C; assay type: biochemical; settings: 40 nM CDC25C, 1–25 μM OMFP; mean ± S.E.; read-out: Ki CDC25C
# T1 construct: Recombinant forms of the catalytic domains of CDC25A, -B and -C were obtained through the vectors pET28a-CDC25A-cd, pET28a-CDC25B-cd and pET28a-CDC25C-cd; made in house
# T1 sequence (P30307 321-428 limits assumed): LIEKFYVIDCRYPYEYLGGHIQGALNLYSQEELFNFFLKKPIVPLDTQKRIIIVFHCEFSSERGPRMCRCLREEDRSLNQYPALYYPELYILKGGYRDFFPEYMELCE
# Procedure: To measure the inhibition constant (Ki) of the recombinant forms of CDC25A, -B and -C towards the various inhibitors, the affinity of the different forms of CDC25 towards OMFP was measured either in the absence or in the presence of fixed concentrations of the various inhibitors. The reaction mixture contained 20 nM CDC25A, or 10 nM CDC25B, or 40 nM CDC25C, and different concentrations of the various inhibitors in 500 μL final volume of 20 mM Tris-HCl, pH 7.8, 1 mM DTT. DMSO was used as vehicle control. […] The corresponding Lineweaver-Burk plots allowed the calculation of the KM for OMFP and of the Vmax of OMFP hydrolysis, expressed as a.u./minmax. […] The Ki values were obtained from the decrease of a.u./minmax in the presence of the inhibitor, according to the equation a.u./mimmax’ = a.u./mimmax/{1 + ([I]/Ki)}, where a.u./mimmax’ represents the Vmax measured in the presence of the concentration [I] of the inhibitor. The Ki values were obtained from at least three independent experiments and reported as mean ± S.E.
# CDC25B = target: T2, CDC25B (Homo sapiens, UniProt P30305); experiment: Residual phosphatase activity of recombinant CDC25B, fluorimetric OMFP assay; assay type: biochemical; settings: 10 nM CDC25B, 25 μM OMFP, read-out: CDC25B residual activity (%) in the presence of [inhibitor]
# T2 construct: Recombinant forms of the catalytic domains of CDC25A, -B and -C were obtained through the vectors pET28a-CDC25A-cd, pET28a-CDC25B-cd and pET28a-CDC25C-cd; made in house
# T2 sequence (P30305 431-538 limits assumed): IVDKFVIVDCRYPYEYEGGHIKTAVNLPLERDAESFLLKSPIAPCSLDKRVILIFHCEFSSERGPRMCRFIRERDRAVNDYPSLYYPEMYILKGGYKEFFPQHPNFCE
# Procedure: Among the twenty-five structures identified from the multiple ligand-based chemoinformatic approach, eight compounds (2, 10, 12–14, and 16–18) were excluded from the analysis, because endowed with a strong fluorescent signal, which interfered with the emission wavelength of the synthetic substrate 3-O-methylfluorescein phosphate (OMFP) used in the fluorimetric assay. The inhibition of the phosphatase activity of CDC25B by the remaining seventeen analogs was evaluated in the presence of two different concentrations of these compounds (Table 2). […] For this reason, only one of these latter compounds, i.e. 3, was included in the following analysis.
# The enzymatic activity of the catalytic domains of CDC25A, -B and -C were determined through a fluorimetric method, which monitored the dephosphorylation of the synthetic substrate OMFP, essentially as previously described. In steady-state enzyme kinetic studies, the residual phosphatase activity of purified recombinant CDC25B was measured at 30°C in the presence of different concentrations of the various inhibitors, using a computer-assisted Cary Eclipse spectrofluorimeter (Varian) equipped with an electronic temperature controller. Excitation and emission wavelengths were set at 485 and 530 nm, respectively; both excitation and emission slits were set at 10 nm. The reaction mixture contained 10 nM CDC25B and different concentrations of the various inhibitors in 500 μL final volume of 20 mM Tris-HCl, pH 7.8, 1 mM DTT. DMSO was used as vehicle control. The reaction started by the addition of 25 μM OMFP, and the formation of the fluorescent product o-methylfluorescein was monitored continuously. The rate of OMFP hydrolysis was expressed as arbitrary units per min (a.u./min). The comparison of the rates determined in the absence and in the presence of the various inhibitors allowed the calculation of the residual phosphatase activity, expressed as a percentage.
# [2] = system: K562 leukaemia cancer cell line; set-up: method as in PMID 22524450; settings: cited from earlier work
# SAN cells [3] = experiment: MTT cell growth rate, SAN melanoma cells; assay type: cell-based, human; settings: 100 μM, 72 h, MTT (not shown)
# Procedure: as §1, §2
# [4] = system: MCF-7 breast cancer cell line; set-up: method as in PMID 22524450; settings: cited from earlier work
# SAN cells [5] = experiment: Intracellular ROS level (DCFH-DA), SAN cells; assay type: cell-based, human; settings: SAN cells not treated with 7, 0.5 mM apocynin
# Procedure: The high redox reactivity of quinonoid molecules, like compound 7, could greatly perturb the intracellular redox state. […] The oxidant effect of 7 was also evaluated after cell pre-treatment with two antioxidant molecules, such as N-acetyl-cysteine (NAC) and the specific inhibitor of NADPH oxidase, apocynin. To this aim, A2058 and SAN cells were pre-incubated for 1 h with 10 mM NAC or 45 min with 0.5 mM apocynin and then treated for 4 h with 100 μM compound 7. […] The cytotoxic activity of 7 could be mediated by the observed increase of ROS level.
# The intracellular ROS level was monitored using the oxidation-sensitive fluorescence probe DCFH-DA. Cells were seeded into 6-well-plates (3 × 10^5 cells/plate) for 24 h at 37°C and then treated at various times with 100 μM compound 7 or 0.5% DMSO. DCFH-DA was added in the dark at 10 μM final concentration 30-min before the end of each incubation; then, cells were collected, washed in PBS, and finally resuspended in 500 μL PBS for fluorimetric analysis. Measurements were realized in a Cary Eclipse fluorescence spectrophotometer (Varian); excitation and emission wavelengths were set at 485 nm and 530 nm, respectively; both excitation and emission slits were set at 10 nm. The effect of 7 on ROS production was also estimated after pretreatment of cells with 10 mM NAC for 1 h.
# Supplementary Figure S5: ROS production and their involvement in the apoptotic process of SAN cells, as induced by treatment with compound 7. A. Time-dependent measurement of ROS production. Cells were incubated with 0.5% DMSO (open bars) or 100 μM compound 7 (black bars) and then the intracellular ROS level was measured. B. Effect of antioxidant molecules on ROS production. The ROS level was also measured in cells untreated or pretreated with NAC or apocynin after a 4-h incubation with DMSO or 7. C. Effect of NAC on apoptosis. The PI incorporation was evaluated in cells untreated or pretreated with NAC after a 48-h incubation with DMSO or 7. ROS production was expressed as a.u., and apoptosis as a percentage. […]
Structure (SMILES),growth of cancer cell line [1],cell growth rate (A2058 cells),Ki (CDC25C) [µM],remaining activity at 0.2 µM (CDC25B; 0.2 μM inhibitor) [%],remaining activity at 1 µM (CDC25B; 1 μM inhibitor) [%],growth of cancer cell line [2],cell growth rate (SAN cells [3]),growth of cancer cell line [4],basal intracellular redox state (SAN cells [5])
"O=C(O)CCc1c2ccc(=O)c(O)c-2oc2c(O)c(O)ccc12 [NSC 119915, reference compound]",significantly inhibited the growth,quite ineffective or caused a not significant reduction of cell growth rate,0.24 ± 0.13,38,2,significantly inhibited the growth,significant reduction of cell growth rate,significantly inhibited the growth,
"COc1cc(C(C)=O)ccc1O [apocynin, reference compound]",,,,,,,,,raised the basal intracellular redox state
